Active and inactive are the calls of the source.
Assays:
[1] = test system: HEK293; assay: inhibition of NOD1-driven NF-kB reporter – cell-based, luminescence, uHTS, primary screen (AID 1578); assay type: functional; conditions: Homo sapiens
[2] = test system: Streptococcus sp. 'group A'; assay: Streptococcus pyogenes SK(-)GAS viability under kanamycin – luminescence, BacTiterGlo, confirmation, counter-screen for streptokinase expression inhibitor project, dose response (AID 1900); assay type: functional, organism-based
[3] = test system: HEK293; assay: cells; assay type: functional, cell-based; conditions: Homo sapiens
[4] = target: T1, Streptokinase A (Streptococcus pyogenes serotype M1, UniProt P10520); assay: viability-normalized secreted streptokinase activity reduction – plasminogen activation absorbance, OD405, dose response (AID 1914); assay type: functional, Streptococcus pyogenes M1 GAS;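 further: secreted streptokinase activity via plasminogen activation per viability signal from cell pellet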
T1 sequence (P10520 whole entry): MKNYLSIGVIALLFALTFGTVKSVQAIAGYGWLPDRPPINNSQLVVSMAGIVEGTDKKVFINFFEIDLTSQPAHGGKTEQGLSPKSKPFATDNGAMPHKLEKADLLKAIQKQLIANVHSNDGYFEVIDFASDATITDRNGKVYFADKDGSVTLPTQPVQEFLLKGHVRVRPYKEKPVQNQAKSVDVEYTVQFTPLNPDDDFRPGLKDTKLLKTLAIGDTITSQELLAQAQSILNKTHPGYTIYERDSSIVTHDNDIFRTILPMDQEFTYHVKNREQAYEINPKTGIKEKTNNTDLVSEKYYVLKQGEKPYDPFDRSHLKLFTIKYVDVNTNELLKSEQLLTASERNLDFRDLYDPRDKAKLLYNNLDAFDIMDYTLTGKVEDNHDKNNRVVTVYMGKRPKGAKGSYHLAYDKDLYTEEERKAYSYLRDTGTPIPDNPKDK

[5] = test system: HEK293; assay: cells; assay type: functional, cell-based; conditions: Homo sapiens; remark: listed apart in the source
[6] = target: Nucleotide-binding oligomerization domain-containing protein 2 (Homo sapiens, UniProt Q9HC29); assay: inhibition of NOD2-driven NF-kB reporter – cell-based, luminescence, uHTS, HEK293 (AID 1566); assay type: functional
Sequence of Nucleotide-binding oligomerization domain-containing protein 2 (Q9HC29 whole entry, the tested form may be a part): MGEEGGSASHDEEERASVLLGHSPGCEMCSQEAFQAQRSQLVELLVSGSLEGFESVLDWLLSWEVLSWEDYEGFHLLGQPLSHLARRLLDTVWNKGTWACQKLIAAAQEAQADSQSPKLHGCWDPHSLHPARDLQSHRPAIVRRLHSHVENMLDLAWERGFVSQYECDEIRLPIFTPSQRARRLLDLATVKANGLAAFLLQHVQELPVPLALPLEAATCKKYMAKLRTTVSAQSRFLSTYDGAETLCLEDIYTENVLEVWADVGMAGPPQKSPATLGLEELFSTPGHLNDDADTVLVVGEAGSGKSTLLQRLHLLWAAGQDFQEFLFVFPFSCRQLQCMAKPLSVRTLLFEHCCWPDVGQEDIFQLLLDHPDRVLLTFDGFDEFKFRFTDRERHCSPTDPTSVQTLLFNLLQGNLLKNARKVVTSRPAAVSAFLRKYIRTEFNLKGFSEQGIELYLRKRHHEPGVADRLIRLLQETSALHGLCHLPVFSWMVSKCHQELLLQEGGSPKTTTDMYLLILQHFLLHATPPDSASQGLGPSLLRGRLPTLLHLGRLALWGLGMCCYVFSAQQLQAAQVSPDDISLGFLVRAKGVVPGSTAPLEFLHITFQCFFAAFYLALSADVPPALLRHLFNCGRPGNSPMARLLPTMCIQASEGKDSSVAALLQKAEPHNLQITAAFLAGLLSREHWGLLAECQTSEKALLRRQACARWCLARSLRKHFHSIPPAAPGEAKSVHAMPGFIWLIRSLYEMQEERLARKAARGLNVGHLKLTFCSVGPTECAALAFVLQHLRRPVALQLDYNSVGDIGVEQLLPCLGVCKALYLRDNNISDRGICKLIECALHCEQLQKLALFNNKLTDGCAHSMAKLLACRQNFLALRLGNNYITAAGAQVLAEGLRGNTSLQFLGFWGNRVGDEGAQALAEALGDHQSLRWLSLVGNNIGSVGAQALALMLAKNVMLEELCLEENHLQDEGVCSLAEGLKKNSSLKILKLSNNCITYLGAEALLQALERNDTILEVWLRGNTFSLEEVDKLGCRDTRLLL

[7] = test system: HEK293; assay: NOD2 signaling inhibitors in MDP-stimulated cells, cell-based, uHTS, luminescence (AID 2001); assay type: functional; conditions: Homo sapiens
[8] = Trypanosoma cruzi growth suppression in host cells – NIH3T3 host cells, beta-gal luminescence, confirmation (AID 2044); assay type: functional, cell-based;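 further: intracellular parasites grown in NIH/3T3 mouse fibroblasts as host cells; luminescent beta-galactosidase reporter signal from transgenic T. cruzi replicating inside host cells; inhibitors lower the luminescence signal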
[9] = test system: HEK293; assay: cells; assay type: functional, cell-based; conditions: Homo sapiens; remark: listed apart in the source
[10] = NIH3T3 cell viability loss – ATP luminescence, mouse fibroblasts, counter-screen, dose response (AID 2010); assay type: functional, cell-based;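 further: cells exposed to compound for about 90 hours before reading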
[11] = test system: Streptococcus; assay: GAS UMAA2166 growth inhibition – luminescence, BacTiterGlo, counter-screen for streptokinase expression inhibitor project, dose response (AID 1915); assay type: functional, organism-based;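 further: potency for reduction of bacterial viability or growth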
[12] = test system: Vero; assay: cells; assay type: functional; conditions: Chlorocebus sabaeus
[13] = A549 cell cytotoxicity, dose response, cytotoxicity control, plate reader, cherry-pick, antagonist series (AID 743412); assay type: functional, cell-based
[14] = toxicity toward HepG2 liver cells – cell-based, plate reader, cherry-pick, antagonist series, cytotoxicity control, dose response (AID 743416); assay type: functional
[15] = blockers of bursicon-stimulated LGR2 cAMP reporter – cell-based, HEK293, CRE-luciferase reporter, cherry pick, set 2, dose response (AID 743343); assay type: functional;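 further: transfected cells were stimulated with diluted bursicon conditioned medium after compound addition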
[16] = blockade of melanocortin 4 receptor signaling – cell-based, plate reader, cherry pick, counter-screen for LGR2 antagonist project, dose response (AID 743444); assay type: functional;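 further: transfected HEK 293 cells stimulated with alpha-MSH peptide; potency of inhibitors of the alpha-MSH evoked signal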
[17] = viability loss in HEK293 cells – cell-based, plate reader, cherry-picked samples, cytotoxicity control, dose response (AID 743446); assay type: functional
[18] = target: T2, Exodeoxyribonuclease V (Escherichia coli (strain K12), UniProt P04993+P07648+P08394); assay: RecBCD inhibition via phage-restricted bacterial growth – absorbance, V66 E. coli, mutant T4 phage, counter-screen for AddAB inhibitor project, dose response (AID 492957); assay type: functional, cell-based, Escherichia coli str. K-12 substr. MG1655
T2 sequence (P04993 whole entry): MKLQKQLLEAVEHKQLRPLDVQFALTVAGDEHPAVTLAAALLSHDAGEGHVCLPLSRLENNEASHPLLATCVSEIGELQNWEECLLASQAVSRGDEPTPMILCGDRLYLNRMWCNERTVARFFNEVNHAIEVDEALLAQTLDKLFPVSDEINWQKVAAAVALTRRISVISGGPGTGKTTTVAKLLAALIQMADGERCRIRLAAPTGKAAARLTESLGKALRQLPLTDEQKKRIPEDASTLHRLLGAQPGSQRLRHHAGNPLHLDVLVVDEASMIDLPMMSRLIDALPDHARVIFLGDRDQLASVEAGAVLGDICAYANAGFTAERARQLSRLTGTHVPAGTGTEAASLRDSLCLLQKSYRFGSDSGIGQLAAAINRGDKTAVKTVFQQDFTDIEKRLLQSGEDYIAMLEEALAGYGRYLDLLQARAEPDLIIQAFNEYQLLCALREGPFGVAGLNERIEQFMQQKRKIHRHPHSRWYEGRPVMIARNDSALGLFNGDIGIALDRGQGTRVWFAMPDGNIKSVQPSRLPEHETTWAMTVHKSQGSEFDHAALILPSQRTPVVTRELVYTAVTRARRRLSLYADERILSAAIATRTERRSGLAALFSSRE
T2 sequence (P07648 whole entry): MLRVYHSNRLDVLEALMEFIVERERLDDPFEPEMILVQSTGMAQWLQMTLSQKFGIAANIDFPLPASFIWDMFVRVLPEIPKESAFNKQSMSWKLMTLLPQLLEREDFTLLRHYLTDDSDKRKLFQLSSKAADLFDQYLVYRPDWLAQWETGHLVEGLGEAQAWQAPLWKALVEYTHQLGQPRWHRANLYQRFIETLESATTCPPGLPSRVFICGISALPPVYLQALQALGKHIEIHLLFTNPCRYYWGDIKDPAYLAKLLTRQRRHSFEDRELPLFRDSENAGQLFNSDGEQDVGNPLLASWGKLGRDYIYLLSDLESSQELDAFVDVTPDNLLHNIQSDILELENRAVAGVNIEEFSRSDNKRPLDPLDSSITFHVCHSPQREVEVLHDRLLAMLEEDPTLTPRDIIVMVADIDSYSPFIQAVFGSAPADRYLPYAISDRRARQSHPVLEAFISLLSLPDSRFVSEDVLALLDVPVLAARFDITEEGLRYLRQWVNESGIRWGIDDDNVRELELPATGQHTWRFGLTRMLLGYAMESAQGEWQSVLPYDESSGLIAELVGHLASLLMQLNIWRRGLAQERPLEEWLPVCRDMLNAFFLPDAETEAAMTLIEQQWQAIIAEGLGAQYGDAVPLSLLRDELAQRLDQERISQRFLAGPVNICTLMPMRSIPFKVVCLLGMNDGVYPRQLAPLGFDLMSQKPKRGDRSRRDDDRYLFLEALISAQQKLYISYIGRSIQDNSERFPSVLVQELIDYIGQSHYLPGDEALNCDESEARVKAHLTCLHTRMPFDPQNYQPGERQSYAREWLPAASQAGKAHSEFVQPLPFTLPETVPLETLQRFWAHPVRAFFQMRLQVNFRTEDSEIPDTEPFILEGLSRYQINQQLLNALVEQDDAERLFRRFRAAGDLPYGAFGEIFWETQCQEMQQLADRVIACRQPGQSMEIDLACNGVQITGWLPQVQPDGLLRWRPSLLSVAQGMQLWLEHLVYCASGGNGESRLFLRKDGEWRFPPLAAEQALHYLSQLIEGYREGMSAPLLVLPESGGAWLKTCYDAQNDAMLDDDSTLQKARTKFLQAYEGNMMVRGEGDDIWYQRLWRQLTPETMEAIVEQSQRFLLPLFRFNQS
T2 sequence (P08394 whole entry): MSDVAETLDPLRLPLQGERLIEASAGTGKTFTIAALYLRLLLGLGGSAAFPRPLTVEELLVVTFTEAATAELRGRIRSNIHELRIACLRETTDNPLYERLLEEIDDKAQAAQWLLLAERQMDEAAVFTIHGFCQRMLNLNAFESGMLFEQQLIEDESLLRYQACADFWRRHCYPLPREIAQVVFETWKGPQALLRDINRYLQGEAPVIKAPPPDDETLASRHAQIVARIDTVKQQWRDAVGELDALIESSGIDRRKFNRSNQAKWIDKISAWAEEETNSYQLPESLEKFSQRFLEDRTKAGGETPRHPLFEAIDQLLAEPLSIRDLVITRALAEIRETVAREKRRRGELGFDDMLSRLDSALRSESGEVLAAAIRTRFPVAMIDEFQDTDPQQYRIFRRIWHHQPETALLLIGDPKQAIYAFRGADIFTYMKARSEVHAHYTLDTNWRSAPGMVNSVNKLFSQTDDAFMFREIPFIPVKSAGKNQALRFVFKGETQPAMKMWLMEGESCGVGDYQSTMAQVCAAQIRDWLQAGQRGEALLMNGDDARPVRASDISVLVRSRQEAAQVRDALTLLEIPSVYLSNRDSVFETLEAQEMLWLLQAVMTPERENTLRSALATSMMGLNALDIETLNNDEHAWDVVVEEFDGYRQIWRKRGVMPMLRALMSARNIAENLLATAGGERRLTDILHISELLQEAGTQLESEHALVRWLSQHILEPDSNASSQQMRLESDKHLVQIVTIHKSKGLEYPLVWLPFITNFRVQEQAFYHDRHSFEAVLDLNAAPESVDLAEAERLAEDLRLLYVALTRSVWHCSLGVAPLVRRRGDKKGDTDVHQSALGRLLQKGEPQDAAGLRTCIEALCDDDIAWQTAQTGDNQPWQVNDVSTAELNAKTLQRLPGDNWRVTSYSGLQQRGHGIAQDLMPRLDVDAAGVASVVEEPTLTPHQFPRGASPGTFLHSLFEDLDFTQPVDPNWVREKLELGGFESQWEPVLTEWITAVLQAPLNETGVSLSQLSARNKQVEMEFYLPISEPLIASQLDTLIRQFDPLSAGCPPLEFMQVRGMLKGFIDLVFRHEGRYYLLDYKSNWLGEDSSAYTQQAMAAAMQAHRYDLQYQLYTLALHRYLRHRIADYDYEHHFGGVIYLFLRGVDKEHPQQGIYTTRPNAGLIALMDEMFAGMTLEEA

[19] = Counterscreen for AddAB inhibitors: absorbance-based bacterial cell-based high throughput dose response assay for inhibitors of bacterial viability. [Related pubchem assays (depositor defined):AID435030, AID449728, AID449731, AID488942, AID488955, AID488956]; assay type: functional

Compound	EC50 [1]	EC50 [2]	IC50 [3]	EC50 [4]	IC50 [5]	EC50 [6]	IC50 [7]	EC50 [8]	IC50 [9]	EC50 [10]	EC50 [11]	CC50 [12]	AC50 [13]	AC50 [14]	AC50 [15]	AC50 [16]	AC50 [17]	IC50 [18]	IC50 [19]
CC(=O)c1c(C)[nH]c(C(=O)Nc2nc(-c3ccc(-c4ccccc4)cc3)cs2)c1C	3.76 µM (active)	4.48 µM (active)	4.41 µM (active)	> 150 µM (not active)	11.2 µM (active)	14.1 µM (active)	4.86 µM (inactive)	0.876 µM (active)	18.2 µM (active)	> 60 µM (not active)	16.7 µM (active)	21.1 µM (active)	17.6 µM (active)	23.5 µM (active)	40.2 µM (active)	20 µM (active)	17.9 µM (active)		
CCOc1cccc(/C=N/NC(=O)c2cc(-c3cccn3C)[nH]n2)c1O																		> 119 µM (inactive)	> 119 µM (inactive)

Source: ChEMBL document CHEMBL1201862, “PubChem BioAssay data set” (2004)
